The record followed here is patent US20240150375A1, “MACROCYCLIC COMPOUNDS AND USES THEREOF” (Theseus Pharmaceuticals, Inc., priority 2021, published 2024).

The target in one test is EGFR^L858R/T790M (Homo sapiens, UniProt P00533, L858R/T790M). The test is described as follows: HTRF KinEASE-TK in vitro kinase assay, EGFR L858R/T790M (LT). In kind it is biochemical. Particulars: EGFR L858R/T790M kinase inhibition. From the text: (§1) The biological activity of compounds described herein can be studied according to standard methods known in the art. Methods can be used to study inhibition of EGFR, including mutant forms of EGFR comprising L858R, T790M, C797S, and/or Del19 mutations, or any combination thereof (e.g., L858R single, double, or triple mutants). Exemplary, non-limiting methods are described herein.
Chain of EGFR^L858R/T790M (P00533 25-1210 T790M/L858R): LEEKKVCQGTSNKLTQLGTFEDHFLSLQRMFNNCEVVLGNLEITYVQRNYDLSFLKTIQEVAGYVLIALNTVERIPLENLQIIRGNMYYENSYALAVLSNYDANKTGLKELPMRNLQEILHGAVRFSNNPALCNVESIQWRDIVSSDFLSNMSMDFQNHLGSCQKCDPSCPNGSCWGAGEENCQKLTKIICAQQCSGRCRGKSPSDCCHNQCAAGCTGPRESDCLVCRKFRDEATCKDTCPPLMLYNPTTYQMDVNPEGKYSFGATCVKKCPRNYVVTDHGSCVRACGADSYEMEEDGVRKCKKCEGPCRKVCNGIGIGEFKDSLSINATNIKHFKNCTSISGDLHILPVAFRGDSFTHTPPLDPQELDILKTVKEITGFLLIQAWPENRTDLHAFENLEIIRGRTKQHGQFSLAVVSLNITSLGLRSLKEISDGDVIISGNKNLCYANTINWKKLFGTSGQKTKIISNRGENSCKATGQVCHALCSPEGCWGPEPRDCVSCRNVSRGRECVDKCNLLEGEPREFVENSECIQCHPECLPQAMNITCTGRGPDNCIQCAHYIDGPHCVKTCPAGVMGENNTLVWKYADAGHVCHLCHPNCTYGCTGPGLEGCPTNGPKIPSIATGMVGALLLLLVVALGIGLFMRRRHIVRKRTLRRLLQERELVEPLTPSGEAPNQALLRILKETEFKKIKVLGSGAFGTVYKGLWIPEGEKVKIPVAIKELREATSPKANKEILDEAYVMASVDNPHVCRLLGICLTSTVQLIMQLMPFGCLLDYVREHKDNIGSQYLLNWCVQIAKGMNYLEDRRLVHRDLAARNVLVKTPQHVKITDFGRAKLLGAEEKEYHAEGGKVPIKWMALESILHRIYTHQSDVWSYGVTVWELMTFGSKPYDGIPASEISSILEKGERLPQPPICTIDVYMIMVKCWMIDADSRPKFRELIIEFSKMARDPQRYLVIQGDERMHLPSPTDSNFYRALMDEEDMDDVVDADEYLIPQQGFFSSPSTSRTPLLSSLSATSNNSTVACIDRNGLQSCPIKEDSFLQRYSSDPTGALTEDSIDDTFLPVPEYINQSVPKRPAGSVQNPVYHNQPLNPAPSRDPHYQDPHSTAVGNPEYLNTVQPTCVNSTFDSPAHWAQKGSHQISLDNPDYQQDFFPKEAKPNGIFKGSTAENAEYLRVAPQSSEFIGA
(§2) Assays using an in vitro kinase assay kit (HTRF KinEASE-TK kit) can be used to study the inhibitory activity of compounds described herein with respect to EGFR mutants such as ECFR^L858R, EGFR^L858R/T790M, and EGFR^L858R/T790M/C797S.
(§3) One hundred thirty six compounds were studied using the kinase (EGFR) and BA/F3 assays described herein, with more than 60% of the tested compounds providing IC50<50 nM values in all six assays. Accordingly, compounds of the invention are a new general class of kinase inhibitors, including potent inhibitors of EGFR mutants.
(§4) Exemplary kinase inhibition (Kinase) and anti-proliferation activity (Ba/F3) data are shown in Table 1 for certain compounds of the invention and are categorized according to the below legend.
A general note: TR-FRET usually uses a lanthanide donor and a delayed reading to cut background.

The target in the next test is EGFR^L858R (Homo sapiens, UniProt P00533, L858R). The test is described as follows: HTRF KinEASE-TK in vitro kinase assay, EGFR L858R (L). In kind it is biochemical. Particulars: EGFR L858R kinase inhibition.
Chain of EGFR^L858R (P00533 25-1210 L858R): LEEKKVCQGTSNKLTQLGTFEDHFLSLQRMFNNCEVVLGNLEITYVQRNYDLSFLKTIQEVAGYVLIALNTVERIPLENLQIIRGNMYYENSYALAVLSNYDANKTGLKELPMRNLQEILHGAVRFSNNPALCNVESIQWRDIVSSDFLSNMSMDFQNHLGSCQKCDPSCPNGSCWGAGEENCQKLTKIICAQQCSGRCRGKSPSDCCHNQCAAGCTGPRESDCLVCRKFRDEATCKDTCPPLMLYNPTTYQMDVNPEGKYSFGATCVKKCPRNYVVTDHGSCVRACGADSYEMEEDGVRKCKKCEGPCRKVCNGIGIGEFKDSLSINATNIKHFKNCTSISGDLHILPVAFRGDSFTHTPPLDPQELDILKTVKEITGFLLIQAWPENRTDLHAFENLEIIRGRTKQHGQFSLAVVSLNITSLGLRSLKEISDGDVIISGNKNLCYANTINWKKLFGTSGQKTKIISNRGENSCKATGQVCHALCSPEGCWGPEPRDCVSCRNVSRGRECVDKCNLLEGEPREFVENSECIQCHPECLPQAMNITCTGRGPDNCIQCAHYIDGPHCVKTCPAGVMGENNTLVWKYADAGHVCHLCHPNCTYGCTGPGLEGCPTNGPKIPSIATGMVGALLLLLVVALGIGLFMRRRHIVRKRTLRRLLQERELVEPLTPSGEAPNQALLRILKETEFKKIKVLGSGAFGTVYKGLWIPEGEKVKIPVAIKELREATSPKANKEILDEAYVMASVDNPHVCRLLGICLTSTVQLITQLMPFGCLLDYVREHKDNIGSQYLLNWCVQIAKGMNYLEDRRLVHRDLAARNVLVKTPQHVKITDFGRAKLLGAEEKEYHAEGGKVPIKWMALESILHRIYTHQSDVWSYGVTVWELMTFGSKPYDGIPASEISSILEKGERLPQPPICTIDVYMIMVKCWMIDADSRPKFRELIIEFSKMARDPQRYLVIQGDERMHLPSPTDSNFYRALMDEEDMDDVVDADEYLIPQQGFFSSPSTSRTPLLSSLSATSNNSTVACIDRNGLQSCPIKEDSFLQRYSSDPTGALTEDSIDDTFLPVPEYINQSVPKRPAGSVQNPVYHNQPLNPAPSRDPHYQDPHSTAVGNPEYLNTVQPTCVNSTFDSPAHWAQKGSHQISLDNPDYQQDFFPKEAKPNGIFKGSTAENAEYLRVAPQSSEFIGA
Description: as §1, §2, §3, §4

In the next test the target is Ba/F3 EGFR-Del19/T790M (Homo sapiens, UniProt P00533, T790M, cells depend on it, form not given). As to the kind of experiment: Ba/F3 viability assay (CellTiter-Glo), EGFR-Del19/T790M (DT). The format is cell-based. The conditions noted are these: Ba/F3 EGFR-Del19/T790M anti-proliferation; read-out: BAF3 DT IC50.
Chain of Ba/F3 EGFR-Del19/T790M (P00533 with tags, fused parts or gaps DEL746-750/T790M, form open): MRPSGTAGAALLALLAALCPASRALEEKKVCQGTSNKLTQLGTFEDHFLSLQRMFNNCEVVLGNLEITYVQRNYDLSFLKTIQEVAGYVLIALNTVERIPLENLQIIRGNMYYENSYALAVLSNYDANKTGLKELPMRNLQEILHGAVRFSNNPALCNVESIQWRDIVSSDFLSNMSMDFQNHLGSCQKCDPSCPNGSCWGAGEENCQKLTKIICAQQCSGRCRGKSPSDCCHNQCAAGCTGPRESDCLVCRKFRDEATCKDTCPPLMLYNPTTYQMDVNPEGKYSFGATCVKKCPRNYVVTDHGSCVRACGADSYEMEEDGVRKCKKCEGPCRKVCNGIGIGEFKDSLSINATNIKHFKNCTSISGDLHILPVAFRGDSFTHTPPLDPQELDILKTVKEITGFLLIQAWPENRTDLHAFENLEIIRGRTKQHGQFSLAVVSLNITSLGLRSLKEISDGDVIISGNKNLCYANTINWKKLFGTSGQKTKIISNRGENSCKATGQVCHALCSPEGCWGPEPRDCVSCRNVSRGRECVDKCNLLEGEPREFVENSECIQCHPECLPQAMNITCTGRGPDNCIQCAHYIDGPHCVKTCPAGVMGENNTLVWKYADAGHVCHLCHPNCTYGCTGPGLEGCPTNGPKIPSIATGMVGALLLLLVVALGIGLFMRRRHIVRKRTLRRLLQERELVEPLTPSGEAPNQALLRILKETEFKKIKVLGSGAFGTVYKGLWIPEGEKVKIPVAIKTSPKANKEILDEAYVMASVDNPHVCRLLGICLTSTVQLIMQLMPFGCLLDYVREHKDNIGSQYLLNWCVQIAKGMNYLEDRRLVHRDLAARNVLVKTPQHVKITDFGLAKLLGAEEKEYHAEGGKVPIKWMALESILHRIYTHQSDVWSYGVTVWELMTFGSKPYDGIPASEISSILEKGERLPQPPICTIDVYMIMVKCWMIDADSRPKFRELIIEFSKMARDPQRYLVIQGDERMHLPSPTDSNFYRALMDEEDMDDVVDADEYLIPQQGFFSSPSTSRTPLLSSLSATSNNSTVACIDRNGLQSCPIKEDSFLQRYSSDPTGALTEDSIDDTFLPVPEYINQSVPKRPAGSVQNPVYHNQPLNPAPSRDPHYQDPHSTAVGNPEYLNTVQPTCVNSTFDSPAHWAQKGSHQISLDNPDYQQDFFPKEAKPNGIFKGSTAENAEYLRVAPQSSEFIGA
Description: (§5) Inhibition of cell proliferation can be studied using Ba/F3 viability assays, including the Promega CellTiter-Glo cell viability assay. This assay can be used to study the effect of compounds described herein in the following assays: (1) Ba/F3 Parental; (2) Ba/F3 EGFR-Del19/T790M; (3); Ba/F3 EGFR-Del19/C797S; and (4) Ba/F3 EGFR-Del119/T790M/C797S.
as §3, §4
In general terms: ATP-based viability assays read luminescence as a measure of living cells.

A further test concerns the target Ba/F3 EGFR-Del19/C797S (Homo sapiens, UniProt P00533, C797S, cells depend on it, form not given). The test is described as follows: Ba/F3 viability assay (CellTiter-Glo), EGFR-Del19/C797S (DC). The conditions noted are these: Ba/F3 EGFR-Del19/C797S anti-proliferation; read-out: BAF3 DC IC50. In kind it is cell-based.
Description: as §5, §3, §4

In another test the target is EGFR^L858R/T790M/C797S (Homo sapiens, UniProt P00533, C797S/L858R/T790M). The test is described as follows: HTRF KinEASE-TK in vitro kinase assay, EGFR L858R/T790M/C797S (LTC). The format is biochemical. Particulars: EGFR L858R/T790M/C797S kinase inhibition.
Description: as §1, §2, §3, §4

The target in test [1] is Ba/F3 EGFR-Del19/T790M/C797S (Homo sapiens, UniProt P00533, T790M/C797S, cells depend on it, form not given). The test is described as follows: Ba/F3 viability assay (CellTiter-Glo), EGFR-Del19/T790M/C797S (DTC). The format is cell-based. Particulars: Ba/F3 EGFR-Del19/T790M/C797S anti-proliferation; read-out: BAF3 DTC IC50.
Description: as §5, §3, §4

A value given as a limit tells only on which side of the number the result lay.

Chain of Ba/F3 EGFR-Del19/C797S (P00533 with tags, fused parts or gaps DEL746-750/C797S, form open): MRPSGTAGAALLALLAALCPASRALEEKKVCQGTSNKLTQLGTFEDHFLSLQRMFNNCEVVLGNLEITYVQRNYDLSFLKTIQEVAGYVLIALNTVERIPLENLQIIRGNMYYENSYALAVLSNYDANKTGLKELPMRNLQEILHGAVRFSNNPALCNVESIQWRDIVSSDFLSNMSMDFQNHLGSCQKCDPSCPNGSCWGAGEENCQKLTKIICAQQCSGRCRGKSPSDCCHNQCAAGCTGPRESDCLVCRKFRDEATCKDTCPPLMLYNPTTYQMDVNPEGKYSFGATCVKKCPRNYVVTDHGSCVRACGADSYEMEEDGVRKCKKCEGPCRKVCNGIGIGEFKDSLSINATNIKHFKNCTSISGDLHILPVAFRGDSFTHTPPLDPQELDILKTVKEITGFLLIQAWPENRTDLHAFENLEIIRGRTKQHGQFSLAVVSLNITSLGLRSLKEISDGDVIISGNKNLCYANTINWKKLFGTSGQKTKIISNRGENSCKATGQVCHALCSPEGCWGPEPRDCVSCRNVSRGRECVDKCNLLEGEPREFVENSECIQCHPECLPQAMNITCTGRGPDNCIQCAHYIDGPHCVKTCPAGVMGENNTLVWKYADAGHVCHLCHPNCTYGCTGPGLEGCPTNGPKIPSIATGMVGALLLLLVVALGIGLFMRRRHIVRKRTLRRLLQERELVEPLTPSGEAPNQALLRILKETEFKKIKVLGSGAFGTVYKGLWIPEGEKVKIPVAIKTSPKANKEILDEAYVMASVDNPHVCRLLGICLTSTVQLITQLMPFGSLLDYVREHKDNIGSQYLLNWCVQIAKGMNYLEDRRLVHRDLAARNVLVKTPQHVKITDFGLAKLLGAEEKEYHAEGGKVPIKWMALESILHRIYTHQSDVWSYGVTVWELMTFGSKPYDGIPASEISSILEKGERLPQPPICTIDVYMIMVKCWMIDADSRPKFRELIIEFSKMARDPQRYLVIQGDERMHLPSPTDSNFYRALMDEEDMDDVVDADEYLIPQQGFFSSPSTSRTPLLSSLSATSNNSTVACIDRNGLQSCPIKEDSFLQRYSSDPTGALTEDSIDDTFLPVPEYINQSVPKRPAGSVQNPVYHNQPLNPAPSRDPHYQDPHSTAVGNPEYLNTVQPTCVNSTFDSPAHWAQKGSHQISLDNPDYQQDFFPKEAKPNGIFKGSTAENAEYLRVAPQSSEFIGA

As usually defined, the IC50 is the midpoint of a concentration-inhibition curve. Regarding `CCOc1nn(C2CC3CCC(C2)N3C)cc1-c1cnc2cc1O[C@@H](C)CCOc1c(cnn1C)-c1nccc(n1)N2` (stereo partly drawn) [(37)], the IC50 on EGFR^L858R/T790M, at EGFR^L858R and at EGFR^L858R/T790M/C797S was less than 50 nM each time. Besides, the GI50 (at Ba/F3 EGFR-Del19/T790M; at Ba/F3 EGFR-Del19/C797S; in test [1]) was less than 50 nM each time.
Consider `CCOc1nn(C2CCN(C3COC3)CC2)cc1-c1cnc2cc1O[C@@H](C)CCOc1c(cnn1C)-c1nccc(n1)N2` [(40)], for which the IC50 on EGFR^L858R/T790M, on EGFR^L858R and at EGFR^L858R/T790M/C797S was less than 50 nM each time. Moreover, the GI50 (on Ba/F3 EGFR-Del19/T790M; at Ba/F3 EGFR-Del19/C797S; in test [1]) was less than 50 nM throughout.
As to `CCCOc1nn(C2CC2)cc1-c1cnc2cc1O[C@@H](C)CCOc1c(cnn1C)-c1nccc(n1)N2` [(42)], the IC50 on EGFR^L858R/T790M, on EGFR^L858R and on EGFR^L858R/T790M/C797S was less than 50 nM each time. In addition, the GI50 (on Ba/F3 EGFR-Del19/T790M; at Ba/F3 EGFR-Del19/C797S; in test [1]) was less than 50 nM throughout.
`C[C@H]1CCOc2c(cnn2C)-c2nccc(n2)Nc2cc(c(-c3cn(C4CC4)nc3OCCF)cn2)O1` [(43)]: the IC50 on EGFR^L858R/T790M, at EGFR^L858R and on EGFR^L858R/T790M/C797S was less than 50 nM in each case. Besides, the GI50 (on Ba/F3 EGFR-Del19/T790M; on Ba/F3 EGFR-Del19/C797S; in test [1]) was less than 50 nM throughout.
For `C[C@H]1CCOc2c(cnn2C)-c2nccc(n2)Nc2cc(c(-c3cn(C)cc3OCC(F)(F)F)cn2)O1` [(48), (10S)-5,10-dimethyl-13-[1-methyl-4-(2,2,2-trifluoroethoxy)pyrrol-3-yl]-7,11-dioxa-4,5,15,17,21,22-hexazatetracyclo[16.3.1.1^12,16.0^2,6]tricosa-1(22),2(6),3,12(23),13,15,18,20-octaene], the IC50 at EGFR^L858R/T790M, on EGFR^L858R and at EGFR^L858R/T790M/C797S was less than 50 nM throughout. Besides, the GI50 (on Ba/F3 EGFR-Del19/T790M; at Ba/F3 EGFR-Del19/C797S; in test [1]) was less than 50 nM in each case.
As to `C[C@H]1CCOc2c(cnn2C)-c2nccc(n2)Nc2cc(c(-c3cn(CCN4CCCC4)nc3OCC(F)(F)F)cn2)O1` [(56)], the IC50 at EGFR^L858R/T790M, at EGFR^L858R and at EGFR^L858R/T790M/C797S was less than 50 nM each time. Also, the GI50 (at Ba/F3 EGFR-Del19/T790M; at Ba/F3 EGFR-Del19/C797S; in test [1]) was less than 50 nM throughout.
`CCOC(=O)CN1CCC(n2cc(-c3cnc4cc3O[C@@H](C)CCOc3c(cnn3C)-c3nccc(n3)N4)c(OCC)n2)CC1` [(62)]: the IC50 at EGFR^L858R/T790M, on EGFR^L858R and on EGFR^L858R/T790M/C797S was less than 50 nM each time. The GI50 (at Ba/F3 EGFR-Del19/T790M; at Ba/F3 EGFR-Del19/C797S; in test [1]) was less than 50 nM each time.
For `C[C@H]1CCOc2c(cnn2C)-c2nccc(n2)Nc2cc(c(Nc3ccn(C)n3)cn2)O1` [(70)], the IC50 at EGFR^L858R/T790M, at EGFR^L858R and on EGFR^L858R/T790M/C797S was less than 50 nM each time. The GI50 (on Ba/F3 EGFR-Del19/T790M; on Ba/F3 EGFR-Del19/C797S; in test [1]) was less than 50 nM throughout.
As for `C[C@H]1CCOc2c(cnn2C)-c2nccc(n2)Nc2cc(c(-c3cc4ccccc4n3C)cn2)O1` [(74)], the results for the IC50 on EGFR^L858R/T790M, on EGFR^L858R and at EGFR^L858R/T790M/C797S were 100 to 1000 nM, no less than 1000 nM and 100 to 1000 nM, respectively. In addition, the figures for the GI50 (on Ba/F3 EGFR-Del19/T790M; at Ba/F3 EGFR-Del19/C797S; in test [1]) were 100 to 1000 nM, no less than 1000 nM and 100 to 1000 nM, respectively.
For the compound `C[C@H]1CCOc2c(cnn2C)-c2nccc(n2)Nc2cc(c(-c3ccc4c(ccn4C)c3)cn2)O1` [(75)], the IC50 at EGFR^L858R/T790M was less than 50 nM; at EGFR^L858R, 50 to 100 nM; at EGFR^L858R/T790M/C797S it was less than 50 nM. For the same compound, the GI50 at Ba/F3 EGFR-Del19/T790M is 50 to 100 nM; on Ba/F3 EGFR-Del19/C797S it was 100 to 1000 nM; in test [1], less than 50 nM.
Consider `C[C@H]1CCOc2c(cnn2C)-c2nccc(n2)Nc2cc(c(-c3cnc(N4CCN(C)CC4)n3C)cn2)O1` [(77)], for which the IC50 at EGFR^L858R/T790M, on EGFR^L858R and at EGFR^L858R/T790M/C797S was less than 50 nM throughout. Further, the figures for the GI50 (at Ba/F3 EGFR-Del19/T790M; on Ba/F3 EGFR-Del19/C797S; in test [1]) were 50 to 100 nM, 100 to 1000 nM and less than 50 nM, respectively.
With `Cc1c(-c2cnc3cc2O[C@@H](C)CCOc2c(cnn2C)-c2nccc(n2)N3)cnn1C1CCN(CCCF)CC1` [(84)], the IC50 on EGFR^L858R/T790M, on EGFR^L858R and on EGFR^L858R/T790M/C797S was less than 50 nM throughout. Also, the GI50 (on Ba/F3 EGFR-Del19/T790M; on Ba/F3 EGFR-Del19/C797S; in test [1]) was less than 50 nM throughout.
